ChEMBL document CHEMBL4340507, “Identification of an indol-based multi-target kinase inhibitor through phenotype screening and target fishing using inverse virtual screening approach” (Eur J Med Chem, 2019)
Calls of active or inactive are those of the source. The rule behind the calls is not given here.

System: MCF7
Test: Antiproliferative activity against human MCF7 cells assessed as decrease in cell viability measured after 72 hrs by MTT assay
Assay type: functional, cell-based
Conditions: MCF7, 72 h
Work on CCCn1cc(CNCCc2ccc(-c3ccccc3)cc2)c2cc(CNc3ccc(F)cc3)ccc21 yielded an IC50 of 1.26 µM.
In the case of CC(=O)N(CCc1ccc(-c2ccccc2)cc1)Cc1cn(C)c2ccc(C(=O)Nc3ccc(C)cc3)cc12, the IC50 is reported as 12.8 µM.
With COc1cc(CN(C)Cc2cn(C)c3ccc(C(=O)Nc4ccc(F)cc4)cc23)cc(OC)c1OC the IC50 was 13.2 µM.
CN(CCc1ccc(-c2ccccc2)cc1)Cc1cn(C)c2ccc(CNc3ccc(F)cc3)cc12 gave an IC50 of 2.15 µM.
Work on CN(Cc1ccc(-c2ccccc2)cc1)Cc1cn(C)c2ccc(C(=O)Nc3ccc(F)cc3)cc12 yielded an IC50 of 54.4 µM.
With CN(Cc1cccc2ccccc12)Cc1cn(C)c2ccc(CNc3ccc(F)cc3)cc12 the IC50 was 4.55 µM.
Work on CN(CCc1ccc(-c2ccccc2)cc1)Cc1cn(C)c2ccc(C(=O)N3CCCCC3)cc12 yielded an IC50 of 3.04 µM.
CN(CCc1ccc(Oc2ccccc2)cc1)Cc1cn(C)c2ccc(C(=O)Nc3ccc(F)cc3)cc12 showed an IC50 of 20.7 µM.
Compound Cn1cc(CNCCc2ccc(-c3ccccc3)cc2)c2cc(C(=O)Nc3ccc(F)cc3)ccc21 has an IC50 of 7.07 µM.
Work on COc1cccc2c1C(=O)c1c(O)c3c(c(O)c1C2=O)C[C@@](O)(C(=O)CO)C[C@@H]3O[C@H]1C[C@H](N)[C@H](O)[C@H](C)O1 [DOXORUBICIN] yielded an IC50 of 14 µM.

System: HeLa
Test: Antiproliferative activity against human HeLa cells assessed as decrease in cell viability measured after 72 hrs by MTT assay
Assay type: functional, cell-based
Conditions: not given
For CCCn1cc(CNCCc2ccc(-c3ccccc3)cc2)c2cc(CNc3ccc(F)cc3)ccc21, the IC50 was 7.23 µM.
In the case of CC(=O)N(CCc1ccc(-c2ccccc2)cc1)Cc1cn(C)c2ccc(C(=O)Nc3ccc(C)cc3)cc12, the IC50 is reported as over 100 µM.
For COc1cc(CN(C)Cc2cn(C)c3ccc(C(=O)Nc4ccc(F)cc4)cc23)cc(OC)c1OC, the IC50 was 4.21 µM.
For CN(CCc1ccc(-c2ccccc2)cc1)Cc1cn(C)c2ccc(CNc3ccc(F)cc3)cc12, the IC50 was 2.92 µM.
CN(Cc1ccc(-c2ccccc2)cc1)Cc1cn(C)c2ccc(C(=O)Nc3ccc(F)cc3)cc12 gave an IC50 of 23.6 µM.
CN(Cc1cccc2ccccc12)Cc1cn(C)c2ccc(CNc3ccc(F)cc3)cc12 gave an IC50 of 0.95 µM.
CN(CCc1ccc(-c2ccccc2)cc1)Cc1cn(C)c2ccc(C(=O)N3CCCCC3)cc12 gave an IC50 of 73.2 µM.
For CN(CCc1ccc(Oc2ccccc2)cc1)Cc1cn(C)c2ccc(C(=O)Nc3ccc(F)cc3)cc12, the IC50 was 16.6 µM.
Cn1cc(CNCCc2ccc(-c3ccccc3)cc2)c2cc(C(=O)Nc3ccc(F)cc3)ccc21 gave an IC50 of 24.3 µM.
With COc1cccc2c1C(=O)c1c(O)c3c(c(O)c1C2=O)C[C@@](O)(C(=O)CO)C[C@@H]3O[C@H]1C[C@H](N)[C@H](O)[C@H](C)O1 [DOXORUBICIN] the IC50 was 1.44 µM.

System: PC-3
Test: Antiproliferative activity against human PC3 cells assessed as decrease in cell viability measured after 72 hrs by MTT assay
Assay type: functional, cell-based
Conditions: PC-3, 72 h
CCCn1cc(CNCCc2ccc(-c3ccccc3)cc2)c2cc(CNc3ccc(F)cc3)ccc21 gave an IC50 of 5.41 µM.
Compound CC(=O)N(CCc1ccc(-c2ccccc2)cc1)Cc1cn(C)c2ccc(C(=O)Nc3ccc(C)cc3)cc12 has an IC50 of over 100 µM.
COc1cc(CN(C)Cc2cn(C)c3ccc(C(=O)Nc4ccc(F)cc4)cc23)cc(OC)c1OC showed an IC50 of 6.45 µM.
In the case of CN(CCc1ccc(-c2ccccc2)cc1)Cc1cn(C)c2ccc(CNc3ccc(F)cc3)cc12, the IC50 is reported as 72.7 µM.
Work on CN(Cc1ccc(-c2ccccc2)cc1)Cc1cn(C)c2ccc(C(=O)Nc3ccc(F)cc3)cc12 yielded an IC50 of over 100 µM.
CN(Cc1cccc2ccccc12)Cc1cn(C)c2ccc(CNc3ccc(F)cc3)cc12 gave an IC50 of 9.41 µM.
For CN(CCc1ccc(-c2ccccc2)cc1)Cc1cn(C)c2ccc(C(=O)N3CCCCC3)cc12, the IC50 was 52.2 µM.
Work on CN(CCc1ccc(Oc2ccccc2)cc1)Cc1cn(C)c2ccc(C(=O)Nc3ccc(F)cc3)cc12 yielded an IC50 of 30.8 µM.
Cn1cc(CNCCc2ccc(-c3ccccc3)cc2)c2cc(C(=O)Nc3ccc(F)cc3)ccc21 gave an IC50 of 45.3 µM.
For COc1cccc2c1C(=O)c1c(O)c3c(c(O)c1C2=O)C[C@@](O)(C(=O)CO)C[C@@H]3O[C@H]1C[C@H](N)[C@H](O)[C@H](C)O1 [DOXORUBICIN], the IC50 was 1.07 µM.

System: Jurkat
Test: Antiproliferative activity against human Jurkat T cells assessed as decrease in cell viability measured after 24 to 72 hrs by MTT assay
Assay type: functional, cell-based
Conditions: not given
Work on CCCn1cc(CNCCc2ccc(-c3ccccc3)cc2)c2cc(CNc3ccc(F)cc3)ccc21 yielded an IC50 of 6.21 µM.
CC(=O)N(CCc1ccc(-c2ccccc2)cc1)Cc1cn(C)c2ccc(C(=O)Nc3ccc(C)cc3)cc12 gave an IC50 of over 100 µM.
Compound COc1cc(CN(C)Cc2cn(C)c3ccc(C(=O)Nc4ccc(F)cc4)cc23)cc(OC)c1OC has an IC50 of 42.1 µM.
In the case of CN(CCc1ccc(-c2ccccc2)cc1)Cc1cn(C)c2ccc(CNc3ccc(F)cc3)cc12, the IC50 is reported as 26.5 µM.
Work on CN(Cc1ccc(-c2ccccc2)cc1)Cc1cn(C)c2ccc(C(=O)Nc3ccc(F)cc3)cc12 yielded an IC50 of over 100 µM.
CN(Cc1cccc2ccccc12)Cc1cn(C)c2ccc(CNc3ccc(F)cc3)cc12 showed an IC50 of 3.68 µM.
In the case of CN(CCc1ccc(-c2ccccc2)cc1)Cc1cn(C)c2ccc(C(=O)N3CCCCC3)cc12, the IC50 is reported as 60.4 µM.
Work on CN(CCc1ccc(Oc2ccccc2)cc1)Cc1cn(C)c2ccc(C(=O)Nc3ccc(F)cc3)cc12 yielded an IC50 of 51.8 µM.
Cn1cc(CNCCc2ccc(-c3ccccc3)cc2)c2cc(C(=O)Nc3ccc(F)cc3)ccc21 gave an IC50 of 83.8 µM.
Work on COc1cccc2c1C(=O)c1c(O)c3c(c(O)c1C2=O)C[C@@](O)(C(=O)CO)C[C@@H]3O[C@H]1C[C@H](N)[C@H](O)[C@H](C)O1 [DOXORUBICIN] yielded an IC50 of 2.35 µM.

System: IEC-6
Test: Cytotoxicity against rat IEC-6 cells assessed as reduction in cell viability measured after 24 to 72 hrs by MTT assay
Assay type: cell-based
Conditions: Rattus norvegicus, IEC-6
Compound CN(Cc1cccc2ccccc12)Cc1cn(C)c2ccc(CNc3ccc(F)cc3)cc12 has an IC50 of 0.59 µM.

Same assay, conditions: rat, iec-6
With CCCn1cc(CNCCc2ccc(-c3ccccc3)cc2)c2cc(CNc3ccc(F)cc3)ccc21 the Activity was “Toxic”.
For CN(CCc1ccc(-c2ccccc2)cc1)Cc1cn(C)c2ccc(C(=O)N3CCCCC3)cc12, the Activity was “Non-Toxic”.

System: IEC-6
Test: Cell cycle arrest in rat IEC-6 cells assessed as accumulation at G0/G1-phase at 0.1 to 0.6 uM after 24 hrs by propidium iodide staining-based FACS analysis
Assay type: ADME
Conditions: iec-6, 24 h
For N#Cc1c(Oc2ccc(F)c(NC(=O)Cc3cccc(C(F)(F)F)c3)c2)ccc2nc(NC(=O)C3CC3)sc12, the Activity was “Toxic”.

System: HeLa
Test: Induction of apoptosis in human HeLa cells assessed as increase in hypodiploid nuclei at 0.3 to 0.6 uM measured after 24 hrs by propidium iodide staining-based FACS analysis
Assay type: functional, cell-based
Conditions: not given
In the case of N#Cc1c(Oc2ccc(F)c(NC(=O)Cc3cccc(C(F)(F)F)c3)c2)ccc2nc(NC(=O)C3CC3)sc12, the Activity is reported as “Active”.

System: IEC-6
Test: Induction of apoptosis in rat IEC-6 cells assessed as increase in hypodiploid nuclei at 0.1 to 0.6 uM measured after 24 hrs by propidium iodide staining-based FACS analysis
Assay type: cell-based
Conditions: iec-6, 24 h
In the case of N#Cc1c(Oc2ccc(F)c(NC(=O)Cc3cccc(C(F)(F)F)c3)c2)ccc2nc(NC(=O)C3CC3)sc12, the Activity is reported as “Toxic”.

System: IEC-6
Test: Cell cycle arrest in rat IEC-6 cells assessed as increase in accumulation at S phase at 0.1 to 0.6 uM after 24 hrs by propidium iodide staining based FACS analysis
Assay type: ADME
Conditions: iec-6, 24 h
With N#Cc1c(Oc2ccc(F)c(NC(=O)Cc3cccc(C(F)(F)F)c3)c2)ccc2nc(NC(=O)C3CC3)sc12 the Activity was “Toxic”.

System: HeLa
Test: Cell cycle arrest in human HeLa cells assessed as accumulation at G0/G1-phase at 0.1 to 0.6 uM after 24 hrs by propidium iodide staining-based FACS analysis
Assay type: functional
Conditions: not given
In the case of N#Cc1c(Oc2ccc(F)c(NC(=O)Cc3cccc(C(F)(F)F)c3)c2)ccc2nc(NC(=O)C3CC3)sc12, the Activity is reported as “Active”.

System: HeLa
Test: Cell cycle arrest in human HeLa cells assessed as decrease in accumulation at G2-phase at 0.1 to 0.6 uM after 24 hrs by propidium iodide staining-based FACS analysis
Assay type: functional
Conditions: not given
In the case of N#Cc1c(Oc2ccc(F)c(NC(=O)Cc3cccc(C(F)(F)F)c3)c2)ccc2nc(NC(=O)C3CC3)sc12, the Activity is reported as “Active”.

System: IEC-6
Test: Cell cycle arrest in rat IEC-6 cells assessed as decrease in accumulation at G2-phase at 0.1 to 0.6 uM after 24 hrs by propidium iodide staining-based FACS analysis
Assay type: ADME
Conditions: iec-6, 24 h
For N#Cc1c(Oc2ccc(F)c(NC(=O)Cc3cccc(C(F)(F)F)c3)c2)ccc2nc(NC(=O)C3CC3)sc12, the Activity was “Toxic”.

System: HeLa
Test: Induction of ROS generation in human HeLa cells at 0.1 to 0.6 uM measured after 24 hrs by H2DC-DA probe-based FACS analysis
Assay type: functional, cell-based
Conditions: not given
With N#Cc1c(Oc2ccc(F)c(NC(=O)Cc3cccc(C(F)(F)F)c3)c2)ccc2nc(NC(=O)C3CC3)sc12 the Activity was “Active”.

System: IEC-6
Test: Induction of ROS generation in rat IEC-6 cells at 0.1 to 0.6 uM measured after 24 hrs by H2DCF-DA staining-based FACS analysis
Assay type: cell-based
Conditions: iec-6, 24 h
With N#Cc1c(Oc2ccc(F)c(NC(=O)Cc3cccc(C(F)(F)F)c3)c2)ccc2nc(NC(=O)C3CC3)sc12 the Activity was “Toxic”.

System: HeLa
Test: Induction of apoptosis in human HeLa cells assessed as increase in caspase 3 level at 0.1 to 0.6 uM after 24 hrs by FACS analysis
Assay type: functional, cell-based
Conditions: not given
For N#Cc1c(Oc2ccc(F)c(NC(=O)Cc3cccc(C(F)(F)F)c3)c2)ccc2nc(NC(=O)C3CC3)sc12, the Activity was “Active”.

System: IEC-6
Test: Induction of apoptosis in rat IEC-6 cells assessed as increase in caspase 3 level at 0.1 to 0.6 uM after 24 hrs by FACS analysis
Assay type: cell-based
Conditions: iec-6, 24 h
For N#Cc1c(Oc2ccc(F)c(NC(=O)Cc3cccc(C(F)(F)F)c3)c2)ccc2nc(NC(=O)C3CC3)sc12, the Activity was “Toxic”.

System: HeLa
Test: Down regulation of ERK expression in human HeLa cells at 0.1 to 0.6 uM after 24 hrs by FACS analysis
Assay type: functional, cell-based
Conditions: not given
In the case of N#Cc1c(Oc2ccc(F)c(NC(=O)Cc3cccc(C(F)(F)F)c3)c2)ccc2nc(NC(=O)C3CC3)sc12, the Activity is reported as “Active”.

System: HeLa
Test: Induction of apoptosis in human HeLa cells assessed as effect on PARP level at 0.1 to 0.6 uM after 24 hrs by FACS analysis
Assay type: functional, cell-based
Conditions: not given
For N#Cc1c(Oc2ccc(F)c(NC(=O)Cc3cccc(C(F)(F)F)c3)c2)ccc2nc(NC(=O)C3CC3)sc12, the Activity was “inactive”.

System: IEC-6
Test: Induction of apoptosis in rat IEC-6 cells assessed as effect on PARP level at 0.1 to 0.6 uM after 24 hrs by FACS analysis
Assay type: cell-based
Conditions: iec-6, 24 h
In the case of N#Cc1c(Oc2ccc(F)c(NC(=O)Cc3cccc(C(F)(F)F)c3)c2)ccc2nc(NC(=O)C3CC3)sc12, the Activity is reported as “Non-Toxic”.

System: HeLa
Test: Inhibition of ERK phosphorylation in human HeLa cells at 0.6 uM after 24 hrs by FACS analysis
Assay type: cell-based
Conditions: not given
With N#Cc1c(Oc2ccc(F)c(NC(=O)Cc3cccc(C(F)(F)F)c3)c2)ccc2nc(NC(=O)C3CC3)sc12 the inhibition was “Active”.

System: IEC-6
Test: Down regulation of ERK expression in rat IEC-6 cells at 0.6 uM after 24 hrs by FACS analysis
Assay type: ADME, cell-based
Conditions: iec-6, 24 h
In the case of N#Cc1c(Oc2ccc(F)c(NC(=O)Cc3cccc(C(F)(F)F)c3)c2)ccc2nc(NC(=O)C3CC3)sc12, the Activity is reported as “Toxic”.

System: not listed separately
Test: Inhibition of ERK phosphorylation in rat IEC-6 cells at 0.6 uM after 24 hrs by FACS analysis
Assay type: cell-based
Conditions: iec-6, 24 h
For N#Cc1c(Oc2ccc(F)c(NC(=O)Cc3cccc(C(F)(F)F)c3)c2)ccc2nc(NC(=O)C3CC3)sc12, the “inhibition (INH)” value was “Active”.

System: IEC-6
Test: Cytotoxicity against rat IEC-6 cells assessed as reduction in cell viability at 0.1 to 0.6 uM measured after 24 to 72 hrs by MTT assay
Assay type: cell-based
Conditions: iec-6, 0.6 µM
For N#Cc1c(Oc2ccc(F)c(NC(=O)Cc3cccc(C(F)(F)F)c3)c2)ccc2nc(NC(=O)C3CC3)sc12, the Activity was “Toxic”.
